Source: US20150133426A1, “SUBSTITUTED PYRROLOPYRIMIDINES” (BAYER PHARMA AKTIENGESELLSCHAFT, priority 2012, published 2015)

Target: T1, human full-length MKNK1 (Homo sapiens, UniProt Q9BUB5, T385D)
T1 construct: purchased Carna Biosciences 02-145; host or cells: insect cells, baculovirus expression system
Test: MKNK1 kinase high ATP assay (TR-FRET)
Assay type: biochemical
Conditions: high ATP (2 mM), 15 min preincubation with enzyme, GST-MKNK1 (T344D)
Outline: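 GST-tagged full-length human MKNK1 (aa 1-424, T344D), baculovirus-expressed, preincubated 15 min with compound, then reacted 30 min at 22 °C with 2 mM ATP and 0.06 µM biotinylated peptide (final).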

T1 sequence (Q9BUB5 1-424 isoform Q9BUB5-2 T344D): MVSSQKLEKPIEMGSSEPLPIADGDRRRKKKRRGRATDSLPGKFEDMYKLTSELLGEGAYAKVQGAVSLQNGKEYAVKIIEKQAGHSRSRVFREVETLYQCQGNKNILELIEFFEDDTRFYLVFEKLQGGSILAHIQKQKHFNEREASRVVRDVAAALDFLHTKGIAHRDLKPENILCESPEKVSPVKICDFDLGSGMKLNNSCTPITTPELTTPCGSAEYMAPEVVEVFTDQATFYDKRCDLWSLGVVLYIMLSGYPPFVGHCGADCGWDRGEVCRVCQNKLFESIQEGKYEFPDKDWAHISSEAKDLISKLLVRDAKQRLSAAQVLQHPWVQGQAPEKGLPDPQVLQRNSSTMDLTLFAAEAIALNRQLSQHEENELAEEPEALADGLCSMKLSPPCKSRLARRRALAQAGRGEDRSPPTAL

| IC50 [nM] | SMILES |
| --- | --- |
| 1170 | CS(=O)(=O)CCCNC(=O)C1CCc2[nH]c3ncnc(Nc4cccc5c4CCCC5)c3c2C1 (racemic) [Example 58, (RS)—N-[3-(Methylsulfonyl)propyl]-4-(5,6,7,8-tetrahydronaphthalen-1-ylamino)-6,7,8,9-tetrahydro-5H-pyrimido[4,5-b]indole-6-carboxamide] |
| 93 | COc1ccc(C(F)(F)F)cc1Nc1ncnc2[nH]c3c(c12)CC(C(=O)N1CCN(C)CC1)CC3 (racemic) [Example 215, (RS)-(4-{[2-Methoxy-5-(trifluoromethyl)phenyl]amino}-6,7,8,9-tetrahydro-5H-pyrimido[4,5-b]indol-6-yl)(4-methylpiperazin-1-yl)methanone] |
| 2890 | O=C(O)C1CCc2[nH]c3ncnc(Nc4ccccc4OC4CCCC4)c3c2C1 (racemic) [Example 180, (RS)-4-{[2-(Cyclopentyloxy)phenyl]amino}-6,7,8,9-tetrahydro-5H-pyrimido[4,5-b]indole-6-carboxylic acid] |
| 503 | COCC1(OC)CCc2[nH]c3ncnc(Nc4cc(Cl)ccc4OC(C)C)c3c2C1 (racemic) [Example 132] |
| 751 | CCOC(=O)C1CCc2[nH]c3ncnc(Nc4ccccc4N4CCOCC4)c3c2C1 (racemic) [Example 172, (RS)-Ethyl 4-{[2-(morpholin-4-yl)phenyl]amino}-6,7,8,9-tetrahydro-5H-pyrimido[4,5-b]indole-6-carboxylate] |
| 6270 | CC(C)Oc1ccc(Br)cc1Nc1ncnc2[nH]c3c(c12)CCCC3 [Example 127] |
| 5920 | COc1cc(F)ccc1Sc1ncnc2[nH]c3c(c12)CC(C(=O)NCCCS(C)(=O)=O)CC3 (racemic) [Example 147, (RS)-4-[(4-Fluoro-2-methoxyphenyl)sulfanyl]-N-[3-(methylsulfonyl)propyl]-6,7,8,9-tetrahydro-5H-pyrimido[4,5-b]indole-6-carboxamide] |
| 1490 | Clc1ccc(Nc2ncnc3[nH]c4c(c23)CCCC4)cc1Cl [Example 114] |
| 70 | CS(=O)(=O)CCCNC(=O)C1CCc2[nH]c3ncnc(Nc4ccccc4OC4CCOC4)c3c2C1 (racemic) [Example 167, (RS)—N-[3-(Methylsulfonyl)propyl]-4-{[2-(tetrahydrofuran-3-yloxy)phenyl]amino}-6,7,8,9-tetrahydro-5H-pyrimido[4,5-b]indole-6-carboxamide] |
| 43 | c1nc(Nc2ccc3[nH]ncc3c2)c2c3c([nH]c2n1)CCSC3 [Example 66, N-(1H-Indazol-5-yl)-5,7,8,9-tetrahydrothiopyrano[3′,4′:4,5]pyrrolo[2,3-d]pyrimidin-4-amine] |
| ≥ 20000 | COc1ccc(Cl)cc1Nc1ncnc2[nH]c3c(c12)CC(F)(F)CC3 [Example 144] |
| 40 | COc1ccc(Cl)cc1Nc1ncnc2[nH]c3c(c12)CC(C(=O)NC(C)C)CC3 (racemic) [Example 224, (RS)-4-[(5-Chloro-2-methoxyphenyl)amino]-N-(propan-2-yl)-6,7,8,9-tetrahydro-5H-pyrimido[4,5-b]indole-6-carboxamide] |

Second part, the molecule before the results:

| SMILES | IC50 [nM] |
| --- | --- |
| Cc1nc2cc(Nc3ncnc4[nH]c5c(c34)CC(C(=O)NCCCS(C)(=O)=O)CC5)ccc2s1 (racemic) [Example 50, (RS)-4-[(2-Methyl-1,3-benzothiazol-5-yl)amino]-N-[3-(methylsulfonyl)propyl]-6,7,8,9-tetrahydro-5H-pyrimido[4,5-b]indole-6-carboxamide] | 6410 |
| COc1cc2[nH]ncc2cc1Nc1ncnc2[nH]c3c(c12)CC(C(=O)NCc1cccc(C(F)(F)F)c1)CC3 (racemic) [Example 220, (RS)-4-[(6-Methoxy-1H-indazol-5-yl)amino]-N-[3-(trifluoromethyl)benzyl]-6,7,8,9-tetrahydro-5H-pyrimido[4,5-b]indole-6-carboxamide] | 3 |
| CCOC(=O)C1CCc2[nH]c3ncnc(Nc4ccc(Cl)c(Cl)c4)c3c2C1 (racemic) [Example 178, (RS)-Ethyl 4-[(3,4-dichlorophenyl)amino]-6,7,8,9-tetrahydro-5H-pyrimido[4,5-b]indole-6-carboxylate] | 215 |
| CN(C)C(=O)C1CCc2[nH]c3ncnc(Nc4ccccc4OC4CCCC4)c3c2C1 (racemic) [Example 188, (RS)-4-{[2-(Cyclopentyloxy)phenyl]amino}-N,N-dimethyl-6,7,8,9-tetrahydro-5H-pyrimido[4,5-b]indole-6-carboxamide] | 710 |
| CC(C)Oc1cc(F)ccc1Nc1ncnc2[nH]c3c(c12)CC(C(=O)NCCCS(C)(=O)=O)CC3 (racemic) [Example 28, (RS)-4-{[4-Fluoro-2-(propan-2-yloxy)phenyl]amino}-N-[3-(methylsulfonyl)propyl]-6,7,8,9-tetrahydro-5H-pyrimido[4,5-b]indole-6-carboxamide] | 8 |
| Cc1ccc(Nc2ncnc3[nH]c4c(c23)CC(C(=O)NCCCS(C)(=O)=O)CC4)c(O)c1 (racemic) [Example 54, (RS)-4-[(2-Hydroxy-4-methylphenyl)amino]-N-[3-(methylsulfonyl)propyl]-6,7,8,9-tetrahydro-5H-pyrimido[4,5-b]indole-6-carboxamide] | 3080 |
| COCC1(OC)CCc2[nH]c3ncnc(Nc4ccc5[nH]ncc5c4)c3c2C1 (racemic) [Example 135] | 167 |
| COc1ccc(F)cc1Nc1ncnc2[nH]c3c(c12)CC(C(=O)O)CC3 (racemic) [Example 181, (RS)-4-[(5-Fluoro-2-methoxyphenyl)amino]-6,7,8,9-tetrahydro-5H-pyrimido[4,5-b]indole-6-carboxylic acid] | 1100 |
| COc1cc(Cl)c(Cl)cc1Nc1ncnc2[nH]c3c(c12)CC(C(=O)NC(C)C)CC3 (racemic) [Example 226, (RS)-4-[(4,5-Dichloro-2-methoxyphenyl)amino]-N-(propan-2-yl)-6,7,8,9-tetrahydro-5H-pyrimido[4,5-b]indole-6-carboxamide] | 19 |
| CS(=O)(=O)CCCNC(=O)C1CCc2[nH]c3ncnc(Nc4cccc(F)c4F)c3c2C1 (racemic) [Example 77, (RS)-4-[(2,3-Difluorophenyl)amino]-N-[3-(methylsulfonyl)propyl]-6,7,8,9-tetrahydro-5H-pyrimido[4,5-b]indole-6-carboxamide] | 3630 |
| COc1ccc(C(F)(F)F)cc1Nc1ncnc2[nH]c3c(c12)CC(C(=O)O)CC3 (racemic) [Example 103, (RS)-4-{[2-Methoxy-5-(trifluoromethyl)phenyl]amino}-6,7,8,9-tetrahydro-5H-pyrimido[4,5-b]indole-6-carboxylic acid] | 400 |
| CC(C)Oc1cc(F)ccc1Nc1ncnc2[nH]c3c(c12)C[S+]([O-])CC3 (racemic) [Example 86, (RS)—N-(4-Fluoro-2-isopropoxyphenyl)-5,7,8,9-tetrahydrothiopyrano[3′,4′:4,5]pyrrolo[2,3-d]pyrimidin-4-amine 6-oxide] | 220 |
| c1nc(Nc2ccc3[nH]ncc3c2)c2c3c([nH]c2n1)CCC1(C3)OCCO1 [Example 27, N-(1H-Indazol-5-yl)-5′,7′,8′,9′-tetrahydrospiro[1,3-dioxolane-2,6′-pyrimido[4,5-b]indol]-4′-amine] | 51 |
| c1ccc(CN2CCc3[nH]c4ncnc(Nc5ccc6[nH]ncc6c5)c4c3C2)cc1 [Example 24, 6-Benzyl-N-(1H-indazol-5-yl)-6,7,8,9-tetrahydro-5H-pyrido[3′,4′:4,5]pyrrolo[2,3-d]pyrimidin-4-amine] | 367 |
| COc1cc2nc(C)sc2cc1Nc1ncnc2[nH]c3c(c12)CC(C(=O)NCCCS(C)(=O)=O)CC3 (racemic) [Example 68, (RS)-4-[(5-Methoxy-2-methyl-1,3-benzothiazol-6-yl)amino]-N-[3-(methylsulfonyl)propyl]-6,7,8,9-tetrahydro-5H-pyrimido[4,5-b]indole-6-carboxamide] | 6160 |
| COc1ccc(F)cc1Nc1ncnc2[nH]c3c(c12)CC(C(=O)NCc1ccccc1)CC3 (racemic) [Example 200, (RS)—N-Benzyl-4-[(5-fluoro-2-methoxyphenyl)amino]-6,7,8,9-tetrahydro-5H-pyrimido[4,5-b]indole-6-carboxamide] | 100 |
| c1nc(Nc2ccc3[nH]ncc3c2)c2c3c([nH]c2n1)CCCCC3 [Example 3, N-(1H-Indazol-5-yl)-5,6,7,8,9,10-hexahydrocyclohepta[4,5]pyrrolo[2,3-d]pyrimidin-4-amine] | 45 |
| COc1ccc(C(F)(F)F)cc1Nc1ncnc2[nH]c3c(c12)CC(C(=O)NCCCS(C)(=O)=O)CC3 (racemic) [Example 67, (RS)-4-{[2-Methoxy-5-(trifluoromethyl)phenyl]amino}-N-[3-(methylsulfonyl)propyl]-6,7,8,9-tetrahydro-5H-pyrimido[4,5-b]indole-6-carboxamide] | 28 |
| CS(=O)(=O)CCCNC(=O)C1CCc2[nH]c3ncnc(Nc4ccc(S(N)(=O)=O)cc4)c3c2C1 (racemic) [Example 48, (RS)—N-[3-(Methylsulfonyl)propyl]-4-[(4-sulfamoylphenyl)amino]-6,7,8,9-tetrahydro-5H-pyrimido[4,5-b]indole-6-carboxamide] | 2840 |
| CS(=O)(=O)CCCNC(=O)C1CCc2[nH]c3ncnc(Nc4ccc5[nH]c(=S)sc5c4)c3c2C1 (racemic) [Example 155, (RS)—N-[3-(Methylsulfonyl)propyl]-4-[(2-thioxo-2,3-dihydro-1,3-benzothiazol-6-yl)amino]-6,7,8,9-tetrahydro-5H-pyrimido[4,5-b]indole-6-carboxamide] | 504 |
| O=C(NCc1cccc(C(F)(F)F)c1)C1CCc2[nH]c3ncnc(N4CCc5ccccc54)c3c2C1 (racemic) [Example 210, (RS)-4-(2,3-Dihydro-1H-indol-1-yl)-N-[3-(trifluoromethyl)benzyl]-6,7,8,9-tetrahydro-5H-pyrimido[4,5-b]indole-6-carboxamide] | ≥ 20000 |
| CS(=O)(=O)CCCNC(=O)C1CCc2[nH]c3ncnc(Nc4ccc5c(c4)OCC(=O)N5)c3c2C1 (racemic) [Example 51, (RS)—N-[3-(Methylsulfonyl)propyl]-4-[(3-oxo-3,4-dihydro-2H-1,4-benzoxazin-7-yl)amino]-6,7,8,9-tetrahydro-5H-pyrimido[4,5-b]indole-6-carboxamide] | 370 |
